According to patent publication US5753675A, “Quinoline analogs of mevalonolactone and derivatives thereof” (Novartis Pharmaceuticals Corporation, priority 1990, dated 1998):
Where two headings read alike, the source gives them in different places.

Experiments:
HMG-CoA reductase = target: T1, HMG-CoA reductase (Rattus norvegicus, UniProt P51639); test: Test A. In Vitro Microsomal Assay of HMG-CoA Reductase Inhibition; type: biochemical; conditions: rat liver microsomal suspensions, [14C]HMG-CoA substrate; test concentrations 0.05-1000 μmolar; read-out: IC50 (concentration calculated to produce a 50% inhibition of HMG-CoA reductase activity)
T1 construct: rat liver microsomal suspensions, freshly prepared from male Sprague-Dawley rats; from tissue; host or cells: rat liver microsomes (male Sprague-Dawley, 150-225 g)
T1 sequence (P51639 1-887): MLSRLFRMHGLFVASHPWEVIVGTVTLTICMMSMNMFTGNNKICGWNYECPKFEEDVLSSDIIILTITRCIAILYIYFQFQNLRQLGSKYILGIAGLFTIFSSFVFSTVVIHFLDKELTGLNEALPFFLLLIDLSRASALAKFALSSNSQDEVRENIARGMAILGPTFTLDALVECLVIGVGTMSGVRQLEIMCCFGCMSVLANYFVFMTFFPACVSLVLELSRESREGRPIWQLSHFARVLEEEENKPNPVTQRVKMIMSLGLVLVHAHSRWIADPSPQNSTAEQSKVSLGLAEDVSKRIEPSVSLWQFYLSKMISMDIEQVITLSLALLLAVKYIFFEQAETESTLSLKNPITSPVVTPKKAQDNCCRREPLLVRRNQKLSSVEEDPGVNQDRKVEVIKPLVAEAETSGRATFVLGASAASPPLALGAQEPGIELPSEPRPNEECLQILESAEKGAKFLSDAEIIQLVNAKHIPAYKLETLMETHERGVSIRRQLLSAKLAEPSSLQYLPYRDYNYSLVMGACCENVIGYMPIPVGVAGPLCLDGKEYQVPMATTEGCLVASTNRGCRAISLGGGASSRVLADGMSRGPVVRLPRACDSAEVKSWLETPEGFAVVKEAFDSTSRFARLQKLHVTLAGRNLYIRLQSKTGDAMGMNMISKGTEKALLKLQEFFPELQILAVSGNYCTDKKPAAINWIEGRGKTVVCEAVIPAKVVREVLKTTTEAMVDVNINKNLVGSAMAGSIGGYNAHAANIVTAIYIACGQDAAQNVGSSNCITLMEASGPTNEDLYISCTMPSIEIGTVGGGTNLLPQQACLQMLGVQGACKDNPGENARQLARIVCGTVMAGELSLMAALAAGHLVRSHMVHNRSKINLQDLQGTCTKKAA
Description: Test A. In Vitro Microsomal Assay of HMG-CoA Reductase Inhibition:
200 μl. aliquots (1.08-1.50 mg./ml.) of rat liver microsomal suspensions, freshly prepared from male Sprague-Dawley rats (150-225 g. body weight), in Buffer A with 10 mmol. dithiothreitol are incubated with 10 μl. of a solution of the test substance in dimethylacetamide and assayed for HMG-CoA reductase activity as described in Ackerman et al., J. Lipid Res. 18, 408-413 (1977). In the assay the microsomes are the source of the HMG-CoA reductase enzyme which catalyzes the reduction of HMG-CoA to mevalonate. The assay employs a chloroform extraction or a Dowex® 1X8 (200-400 mesh, formate form) ion exchange column to separate the product, [^14 C]mevalonolactone, formed by the HMG-CoA reductase reduction of the substrate, [^14 C]HMG-CoA. [^3 H]mevalonolactone is added as an internal reference. Inhibition of HMG-CoA reductase is calculated from the decrease in specific activity ([^14 C/^3 H]mevalonate) of test groups compared to controls.
IC50 is the concentration of the test substance in the assay system calculated to produce a 50% inhibition of HMG-CoA reductase activity. The tests are run at concentrations of test substance between 0.05 and 1000 μmolar.

[1] = test system: 3β-hydroxysterol synthesis (cholesterol biosynthesis); test: Test B. In Vivo Cholesterol Biosynthesis Inhibition Test; conditions: Rattus norvegicus, ip, 1 h, read-out: ED50 (inhibition of 3β-hydroxysterol synthesis)
Description: Test B. In Vivo Cholesterol Biosynthesis Inhibition Test: In vivo studies utilize male Wistar Royal Hart rats weighing 150±20 g. which have been kept for 7-10 days on an altered light cycle (6:30 A.M.-6:30 P.M. dark) housed two per cage and fed powdered Purina Rat Chow and water ad libitum. Three hours before the diurnal maximum of cholesterol synthesis at mid-dark, the rats are administered the test substance (e.g., 0.01-20 mg./kg. body weight) dissolved or as a suspension in 0.5% carboxymethyl-cellulose in a volume of 1 ml./100 g. body weight. Controls receive vehicle alone. One hour after receiving the test substance, the rats are injected intraperitoneally with about 25 μCi/100 g. body weight of sodium [1-^14 C]acetate 1-3 mCi/mmol. Two hours after mid-dark, blood samples are obtained under sodium hexobarbital anesthesia, and the serum is separated by centrifugation. […] The [^14 C]digitonides are then counted by liquid scintillation spectrometry. […] Inhibition of 3β-hydroxysterol synthesis is calculated from the reduction in the nCi of 3β-hydroxysterols formed from test groups compared to controls.

[2] = male Wistar Royal Hart rats, in 0.5% carboxymethyl-cellulose, sodium [1-14C]acetate i.p. one hour after test substance, serum

Structure (SMILES) | IC50 (HMG-CoA reductase) [nM] | ED50 [1, 2] [mg/kg] | ED50 [1] [mg/kg]
CCOC(=O)C[C@H](O)C[C@H](O)/C=C/c1c(C(C)C)nc2ccccc2c1-c1ccc(F)cc1 (relative stereo) [Example 3C] | 410 | 0.49 | –
CC[C@H](C)C(=O)O[C@H]1CCC=C2C=C[C@H](C)[C@H](CC[C@@H]3C[C@@H](O)CC(=O)O3)[C@H]21 [Compactin, reference compound] | – | 3.5 | –
CC(C)c1nc2ccccc2c(-c2ccc(F)cc2)c1/C=C/C(O)CC(O)CC(=O)O (stereo not drawn) [Example 4] | 530 | > 1 | –
CC[C@H](C)C(=O)O[C@H]1C[C@@H](C)C=C2C=C[C@H](C)[C@H](CC[C@@H]3C[C@@H](O)CC(=O)O3)[C@H]21 [Mevinolin, reference compound] | – | – | 0.41
